# According to PubChem BioAssay (NCI):
#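 Compound exposure: 48 hours, 5 concentrations, 96-well plates. GI50 is the concentration that inhibits growth by half. TGI marks complete inhibition of growth.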
# Assays:
# Assay in all cases: inhibition of tumour cell growth, NCI panel, 48 h
# MDA-MB-435 = system: MDA-MB-435
# HS 578T breast = system: HS 578T breast
# DLD-1 colon = system: DLD-1 colon
# SNB-78 CNS = system: SNB-78 CNS
# HOP-18 NSCLC = system: HOP-18 NSCLC
# M19-MEL melanoma = system: M19-MEL melanoma
# XF 498 CNS = system: XF 498 CNS
# MDA-N = system: MDA-N
# RXF-631 renal = system: RXF-631 renal
Structure (SMILES),GI50 (MDA-MB-435),TGI (MDA-MB-435),GI50 (HS 578T breast),TGI (HS 578T breast),TGI (DLD-1 colon),TGI (SNB-78 CNS),TGI (M19-MEL melanoma),further results
Cc1ccc2oc(=O)cc(/C(=C3/C=CC=N3)c3ccc[nH]3)c2c1,0.211 µM,0.544 µM,0.391 µM,4.7 µM,,,,
CC(C)N(O)C(=N)c1ccccc1,,,,,> 100 µM,> 100 µM,> 100 µM,TGI (HOP-18 NSCLC): 0.849 µM
O=C(O)/C(Cl)=C(\Cl)C(=O)c1ccccc1,,,,,> 100 µM,> 100 µM,> 100 µM,TGI (XF 498 CNS): > 100 µM
O=c1c2ccc(S(=O)(=O)c3ccc4c(=O)n5c6ccccc6nc5c5cccc3c45)c3cccc(c32)c2nc3ccccc3n12,,> 100 µM,,,,,,
COc1cccc(/C=C/C(=O)c2ccc(SC)cc2)c1OC,17.8 µM,35.3 µM,25.3 µM,56.6 µM,,,,
O=C(/C=C\c1cccc2ccccc12)c1ccc(F)cc1,,,,,37.6 µM,38.5 µM,39.4 µM,TGI (HOP-18 NSCLC): 28.2 µM
CCCCCOCC(O)CO (stereo not given),,,,,> 100 µM,> 100 µM,,TGI (XF 498 CNS): > 100 µM; TGI (HOP-18 NSCLC): > 100 µM
Cc1ccc(-c2nc3ccccc3c(=O)n2NCC2(O)OCC(O)C(O)C2O)cc1 (stereo not given),,,,,,> 100 µM,> 100 µM,
N#Cc1c(NCc2ccccc2)nc(NCc2ccccc2)c(C#N)c1-c1ccc(O)cc1,25.2 µM,69.8 µM,22.9 µM,> 100 µM,,,,
Cc1cccc(-n2c(N)c(-c3nc4ccccc4[nH]3)sc2=S)c1,,,,,80.1 µM,,64 µM,TGI (HOP-18 NSCLC): > 100 µM
CC1=C2CC(C)(C)/C=C\C(=O)/C(C)=C\C3=C[C@H](C)C[C@]3(O2)C1=O,,1.66 µM,,22.3 µM,,,,TGI (MDA-N): 9.98 µM
COc1cc(Oc2c(C)c(Cl)c(OC)c(Cl)c2OC)c2c(c1Cl)COC2=O,,> 100 µM,,> 100 µM,,,,TGI (MDA-N): 69.2 µM
COC(=O)c1ccc2c(c1)C(=O)c1c-2n(CCCCl)c(=O)c2cc([N+](=O)[O-])ccc12,> 100 µM,> 100 µM,> 100 µM,> 100 µM,,,,
COc1ccc(/C=C2\CN(C(=O)C(Cl)Cl)C/C(=C\c3ccc(OC)cc3)C2=O)cc1,,,2.65 µM,> 100 µM,,,,
COc1cc2c3cc1Oc1c(OC)c(OC)cc4c1C(=NCC4)Cc1ccc(cc1)Oc1cc(ccc1O)C[C@H]3N(C)CC2,,37.3 µM,,63.7 µM,,,,TGI (MDA-N): 31 µM
CN1CN(C2OC(CO)C(O)C2O)c2nc(N)[nH]c(=O)c21 (stereo not given),,,,,> 100 µM,> 100 µM,> 100 µM,TGI (XF 498 CNS): > 100 µM; TGI (HOP-18 NSCLC): > 100 µM
CC1=CC(C)=NN=C(N)N1S(=O)(=O)c1cc(C)c(Cl)cc1SCc1ccccc1,21.3 µM,> 100 µM,> 100 µM,> 100 µM,,,,
O=C1C(=C(C(F)(F)Cl)C(F)(F)Cl)C2CCC1C2 (stereo not given),,3.81 µM,,> 10 µM,,,,
O=C/C1=C/C2=Cc3ccccc3C=C(/C=C(/C=O)C1)C2,,,,,> 100 µM,> 100 µM,> 100 µM,TGI (XF 498 CNS): > 100 µM

Structure (SMILES),GI50 (MDA-MB-435),TGI (MDA-MB-435),GI50 (HS 578T breast),TGI (HS 578T breast),TGI (DLD-1 colon),TGI (SNB-78 CNS),TGI (M19-MEL melanoma),further results
N#CC(C(=O)C(=O)Nc1ccccc1)c1ccccc1 (stereo not given),,,,,> 100 µM,,> 100 µM,TGI (XF 498 CNS): > 100 µM
CCN1CCC(Nc2ccnc3cc(Cl)ccc23)CC1,17.8 µM,55.5 µM,17.1 µM,48.9 µM,,,,
CC(=O)O[C@H]([C@H](OC(C)=O)[C@H](C)OC(C)=O)[C@@H](/C=C/[C@@H]1CC=CC(=O)O1)OC(C)=O,19.8 µM,> 100 µM,54.7 µM,> 100 µM,,,,
CCCCCCCCCCCCCCCCCc1nccn1CCOCCO,5.85 µg/mL,11.7 µg/mL,5.34 µg/mL,12.7 µg/mL,,,,
CC(C)N1CCN(c2ccncc2S(=O)(=O)N2CCCCC2)CC1,,> 100 µM,,> 100 µM,,,,TGI (MDA-N): > 100 µM
CC(=O)Nc1cc2cc(N)ccc2oc1=O,,> 100 µM,,> 100 µM,,,,TGI (MDA-N): > 100 µM
CCCCN1CCCC[C@@H]1C(=O)N[C@H](C(=O)N(C)[C@H](C[C@@H](OC(C)=O)c1nc(C(=O)NC2CCC(C(=O)OC)CC2)cs1)C(C)C)C(C)C (stereo not given in full),0.224 µM,0.736 µM,1.96 µM,> 25 µM,,,,
C[C@]12CCC(=O)C(OC(=O)c3ccc([N+](=O)[O-])cc3)=C1CCC2=O,,,,,> 100 µM,> 100 µM,> 100 µM,TGI (HOP-18 NSCLC): > 100 µM
O=C1C(=O)N(c2ccc(Cl)cc2)C(=O)C(=O)C1c1nc2ccccc2o1,,,,,> 100 µM,> 100 µM,> 100 µM,TGI (XF 498 CNS): > 100 µM; TGI (RXF-631 renal): > 100 µM
N#Cc1ccc(Cc2ccccn2)cc1Cl,,,,,> 100 µM,> 100 µM,> 100 µM,TGI (RXF-631 renal): > 100 µM; TGI (HOP-18 NSCLC): > 100 µM
O=C(Nc1cccc2c1C(=O)c1c(NC(=O)c3ccccc3)ccc(Nc3cccc4c3C(=O)c3ccccc3C4=O)c1C2=O)c1ccccc1,,,,,> 100 µM,> 100 µM,> 100 µM,TGI (RXF-631 renal): > 100 µM; TGI (HOP-18 NSCLC): > 100 µM
O=C(CC1(O)C(=O)N(Cc2ccccc2)c2ccc(Cl)cc21)c1ccc(C(=O)NCC2CCC3(CC2)OOC2(CCCCC2)OO3)cc1 (stereo not given),0.394 µM,1.4 µM,2.11 µM,11.6 µM,,,,
COc1cc(/C=C(\NC(=O)c2ccccc2)c2nc3ccc4c(c3[nH]2)C(=O)c2ccccc2C4=O)cc(OC)c1OC,,,,,> 100 µM,> 100 µM,> 100 µM,TGI (XF 498 CNS): > 100 µM; TGI (RXF-631 renal): > 100 µM
O=S(=O)(CCN1CCOCC1)Nc1cc(-c2ccc3ncnc(Nc4ccc(F)c(Cl)c4)c3c2)cnc1Cl,0.712 µM,10.3 µM,,,,,,
COC(OC)c1cc2c(cc1C=O)OCO2,,,,,> 100 µM,> 100 µM,> 100 µM,
Oc1ccc(Nc2ccc3ccccc3c2)cc1,3.27 µM,14 µM,12.1 µM,57.1 µM,,,,
O=C(CCl)NCCNc1nccc(Nc2ccc(S(=O)(=O)Nc3ccccn3)cc2)n1,1.96 µM,7.13 µM,5.23 µM,> 100 µM,,,,
CO[C@@H]1C=C[C@@]23c4cc5c(cc4CN(C[C@@H]2O)[C@H]3C1)OCO5,,,,,> 100 µM,> 100 µM,> 100 µM,TGI (XF 498 CNS): > 100 µM; TGI (HOP-18 NSCLC): 83.2 µM
